Assay results as given in ChEMBL document CHEMBL1201862, “PubChem BioAssay data set” (2004).
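Grown in 96-well plates, cells were treated for 48 hours with each compound at five concentrations. Insufficient inhibition: endpoint recorded as highest concentration tested. GI50 = concentration required for 50% inhibition of growth.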 Calls of active or inactive are those of the source. Rule as the data show it: active = GI50 up to about 1.1 µM and inactive = higher.

Legend:
Assay in all cases: inhibition of tumour cell growth, NCI panel, 48 h
Hs-578T = tested on: Hs-578T
NCI-H460 = tested on: NCI-H460
BT-549 = tested on: BT-549
KM12 = tested on: KM12
MOLT-4 = tested on: MOLT-4
NCI-H226 = tested on: NCI-H226
COLO 205 = tested on: COLO 205
NCI/ADR-RES = tested on: NCI/ADR-RES
A498 = tested on: A498
TK-10 = tested on: TK-10
SF-295 = tested on: SF-295
Malme-3M = tested on: Malme-3M
OVCAR-4 = tested on: OVCAR-4
786-0 = tested on: 786-0
EKVX = tested on: EKVX
SNB-75 = tested on: SNB-75
CCRF-CEM = tested on: CCRF-CEM
SF-539 = tested on: SF-539
UACC-62 = tested on: UACC-62
HCT-116 = tested on: HCT-116
HOP-62 = tested on: HOP-62
M14 = tested on: M14
OVCAR-8 = tested on: OVCAR-8
SW-620 = tested on: SW-620
HCT-15 = tested on: HCT-15
UACC-257 = tested on: UACC-257
DU-145 = tested on: DU-145
NCI-H522 = tested on: NCI-H522
PC-3 = tested on: PC-3
A549 = tested on: A549
SNB-19 = tested on: SNB-19
SK-MEL-5 = tested on: SK-MEL-5
HCC 2998 = tested on: HCC 2998
SK-MEL-2 = tested on: SK-MEL-2
U-251 = tested on: U-251
K562 = tested on: K562
NCI-H23 = tested on: NCI-H23
IGROV-1 = tested on: IGROV-1
SF-268 = tested on: SF-268
MCF7 = tested on: MCF7
HL-60 = tested on: HL-60
RXF 393 = tested on: RXF 393
CAKI-1 = tested on: CAKI-1
RPMI-8226 = tested on: RPMI-8226
SN12C = tested on: SN12C
MDA-N = tested on: MDA-N
ACHN = tested on: ACHN
OVCAR-3 = tested on: OVCAR-3
HT-29 = tested on: HT-29
SK-MEL-28 = tested on: SK-MEL-28
OVCAR-5 = tested on: OVCAR-5
MDA-MB-435 = tested on: MDA-MB-435
T47D = tested on: T47D
SR = tested on: SR
LOX IMVI = tested on: LOX IMVI
MDA-MB-231 = tested on: MDA-MB-231
HOP-92 = tested on: HOP-92
SK-OV-3 = tested on: SK-OV-3
UO-31 = tested on: UO-31

Measured: GI50

O=c1[nH]c2nccn2c2c1SCCN2
> 100 µM: HCT-15
inactive: Hs-578T > 100 µM | NCI-H460 > 100 µM | BT-549 > 100 µM | KM12 > 100 µM | MOLT-4 > 100 µM | NCI-H226 > 100 µM | COLO 205 > 100 µM | NCI/ADR-RES > 100 µM | A498 > 100 µM | TK-10 > 100 µM | SF-295 > 100 µM | Malme-3M > 100 µM | OVCAR-4 > 100 µM | 786-0 > 100 µM | EKVX > 100 µM | SNB-75 > 100 µM | CCRF-CEM > 100 µM | SF-539 > 100 µM | UACC-62 > 100 µM | HCT-116 > 100 µM | HOP-62 > 100 µM | M14 > 100 µM | OVCAR-8 > 100 µM | SW-620 > 100 µM | UACC-257 > 100 µM | DU-145 > 100 µM | NCI-H522 > 100 µM | PC-3 > 100 µM | A549 > 100 µM | SNB-19 > 100 µM | SK-MEL-5 > 100 µM | HCC 2998 > 100 µM | SK-MEL-2 > 100 µM | U-251 > 100 µM | K562 > 100 µM | NCI-H23 > 100 µM | IGROV-1 > 100 µM | SF-268 > 100 µM | MCF7 > 100 µM | HL-60 > 100 µM | RXF 393 > 100 µM | CAKI-1 > 100 µM | RPMI-8226 > 100 µM | SN12C > 100 µM | MDA-N > 100 µM | ACHN > 100 µM | OVCAR-3 > 100 µM | HT-29 > 100 µM | SK-MEL-28 > 100 µM | OVCAR-5 > 100 µM | MDA-MB-435 > 100 µM | T47D > 100 µM | SR > 100 µM | LOX IMVI > 100 µM

CSc1nc(Cl)c2c(n1)Sc1ncnn1C2O (configuration not stated)
active: COLO 205 0.843 µM | SF-539 0.318 µM | HL-60 0.0547 µM
inactive: Hs-578T 5.09 µM | NCI-H460 21 µM | BT-549 11.4 µM | MOLT-4 6.7 µM | NCI/ADR-RES 25.9 µM | A498 20 µM | TK-10 17.2 µM | Malme-3M 3.18 µM | OVCAR-4 15 µM | 786-0 2.66 µM | EKVX 17.2 µM | MDA-MB-231 16.1 µM | CCRF-CEM 1.56 µM | HOP-92 12.6 µM | UACC-62 12.6 µM | HCT-116 5.12 µM | HOP-62 21.8 µM | M14 14.3 µM | OVCAR-8 2.82 µM | SK-OV-3 27.3 µM | SW-620 2.88 µM | UACC-257 19.5 µM | DU-145 7.08 µM | NCI-H522 2.43 µM | PC-3 13.6 µM | A549 19.8 µM | SNB-19 28 µM | HCC 2998 13.6 µM | SK-MEL-2 17.4 µM | U-251 14.9 µM | K562 3.62 µM | NCI-H23 14.2 µM | IGROV-1 18.9 µM | SF-268 6.61 µM | MCF7 3.83 µM | RXF 393 2.58 µM | CAKI-1 12.7 µM | SN12C 11 µM | MDA-N 7.13 µM | ACHN 4.29 µM | OVCAR-3 7.31 µM | UO-31 2.55 µM | HT-29 12.9 µM | SK-MEL-28 29.2 µM | OVCAR-5 17.7 µM | MDA-MB-435 4.57 µM | SR 2.86 µM | LOX IMVI 6.37 µM
4.37 µM: HCT-15
